Where a SMILES comes first, the peptide text is derived from it. The star is where a group is joined. Palmitoyl = CCCCCCCCCCCCCCCC(=O)*
What was measured:
[1] = test system: melanin synthesis in human skin fragments; assay: Inhibition of melanin synthesis in ex vivo human skin fragments (Fontana Masson staining, semi-quantification); assay type: cell-based; conditions: skin explants (n=5), 72h
Procedure: Example 1: Evaluation of inhibition of melanin synthesis in human skin fragments.
Skin explants (n=5), obtained from a surgical procedure performed by an ophthalmological plastic surgery clinic, were treated for 72h with a formulation containing the peptide SEQ ID No. 1 (Pal-Gln-His-Trp-Val-OH), (at 50 ppm or 100 ppm) and with the same formulation without the addition of the peptide (placebo).
After incubation with the test products as described above, the skin fragments were fixed in 4% paraformaldehyde (pH 7.4) for 24 hours. After fixation, the material was transferred to 30% sucrose solution for cryopreservation and then embedded in tissue freezing medium, followed by serial sections of approximately 10 µm thickness made by cryostat and collected directly on silanized glass slides. Then, the skin sections were stained by the Fontana Masson technique.
Subsequently, the slides were analyzed and recorded using an optical microscope coupled to a camera.

[2] = test system: type I collagen; assay: Stimulation of type I collagen synthesis in ex vivo human skin fragments (immunofluorescence, semi-quantification); assay type: cell-based; conditions: skin explants (n=5)
Procedure: Example 2: Evaluation of collagen synthesis stimulation in human skin fragments.
Skin explants (n=5) obtained from a surgical procedure performed by the ophthalmologic plastic surgery clinic were treated for 72 h with a formulation containing the peptide SEQ ID No. 1 ( Pal - Gln - His- Trp - Val-OH ) (at 50 ppm or 100 ppm ) and with the same formulation without the addition of the peptide (placebo). After incubation with the test products as described above, the skin fragments were fixed in 4% paraformaldehyde (pH 7.4) for 24 h. After fixation, the material was transferred to a 30% sucrose solution for cryopreservation and then embedded in tissue freezing medium, followed by serial sections of approximately 10 µm thickness made by cryostat and collected directly on silanized glass slides. The skin sections were then subjected to the specific labeling process for type I collagen for subsequent immunofluorescence analysis; the records were obtained using a fluorescence optical microscope coupled to a photographic camera.

## CCCCCCCCCCCCCCCC(=O)N[C@@H](CCC(N)=O)C(=O)N[C@@H](Cc1cnc[nH]1)C(=O)N[C@@H](Cc1c[nH]c2ccccc12)C(=O)N[C@H](C(=O)O)C(C)C [SEQ ID No. 1, Pal-Gln-His-Trp-Val-OH] (Palmitoyl-QHWV-OH)
[1]; 50 ppm peptide in formulation
  reduces melanin production compared to the placebo group: 66%
[1]; 100 ppm peptide in formulation
  inhibits pigment synthesis compared to the levels observed in the placebo group: 61%
[2]; 50 ppm peptide in formulation, 72h
  stimulated collagen I production compared to the placebo group: 63%
[2]; 100 ppm peptide in formulation, 72 h, protein = type I collagen
  increase in protein synthesis compared to the levels observed in the placebo group: 71%
